Assay results taken from US20240190950A1, “METHOD OF TREATING DISEASES USING GREMLIN1 ANTAGONISTS” (SHANGHAI JIAO TONG UNIVERSITY, priority 2021, published 2024).

Key:
Assay type in all cases: cell-based, human
[1] = tested on: GREM1 expression in LNCaP cells; experiment: Regulation of GREM1 expression by AR agonist/antagonist in LNCaP cells (q-PCR, immunoblot, luciferase reporter); conditions: R1881 1 nM, enzalutamide 10 μg/ml
From the text: AR plays a central role in PCa. To assess the relationship between Gremlin1 and AR signaling, we performed further IHC staining for Gremlin1 and PSA, a classic downstream target of AR, on sections of CRPC specimens. […] In addition, we detected a significant increase of GREM1 in a castration resistant LNCaP cell line (termed as LNCaP R), which was derived from xenograft LNCaP tumors implanted in castrated mice, compared to a control LNCaP cell line generated from xenografts in intact mice (FIG. 2A). We then asked whether the expression of GREM1 was regulated by AR signaling. We utilized an AR expressing lentivirus or the CRISPR/Cas9 method to achieve AR upregulation (FIG. 2B) or knockout in the LNCaP PCa cell line (FIG. 2D). […] This conclusion was supported by AR agonist R1881 and antagonist Enzalutamide treatment experiments (FIG. 1D, 1E).
Additionally, we carried out a luciferase reporter assay.

[2] = tested on: LNCaP cells; experiment: GREM1-promoted PCa cell proliferation and sphere formation with FGFR1/MEK inhibitors or BMP4
From the text: (§1) MAPK signaling can be activated through many membrane receptors besides FGFR. To test whether the activation of MAPK pathway by GREM1 was via FGFR, we constructed a FGFR1 knockout LNCaP subline by the CRISPR/Cas9 method. […] To further test whether the tumor promoting effect of GREM1 was through FGFR, we utilized small molecule inhibitors of FGFR or EGFR.

[3] = tested on: FGFR1/MEK/ERK signaling pathway; experiment: FGFR1/MEK/ERK phosphorylation in PCa cell lines (immunoblotting)
Method: In order to test whether Gremlin1 promoted the FGFR-MAPK signaling, we first performed analysis of the expression levels of the four FGFRs in CRPC patients. […] We treated LNCaP and PC3 with GREM1 in different concentrations (1 ng/ml, 10 ng/ml, 100 ng/ml) and examined phosphorylation levels of FGFR1, MEK and ERK.
as §1
14E3 was tested to target GREM1 in human PCa.

Compound | GREM1 mRNA transcription [1] | GREM1 promoter driven luciferase activity [1] | Gremlin1 protein level [1] | proliferation promoting role of GREM1 [2] | sphere-formation promoting role of GREM1 [2] | activation of MAPK/FGFR1 signaling axis by GREM1 in presence of inhibitor ([3]; inhibitor 1 μM, Gremlin1 100 ng/ml, PC3 and LNCaP-resistance cells) | time of highest MAPK signaling activation ([3]; FGF 20 ng/ml, PC3 and LNCaP cells, quickly diminished afterwards) [min]
C[C@]1(O)CC[C@H]2[C@@H]3CCC4=CC(=O)CCC4=C3C=C[C@@]21C [R1881] | downregulated | greatly inhibited | downregulated | – | – | – | –
CCN1CCN(c2ccc(Nc3cc(N(C)C(=O)Nc4c(Cl)c(OC)cc(OC)c4Cl)ncn3)cc2)CC1 [BGJ398, reference compound] | – | – | – | significantly compromised | significantly compromised | attenuated | –
FGF1: known FGFR1 ligand used as a positive control | – | – | – | – | – | – | 10
CNC(=O)c1ccc(N2C(=S)N(c3ccc(C#N)c(C(F)(F)F)c3)C(=O)C2(C)C)cc1F [enzalutamide] | significantly increased | enhanced | significantly increased | – | – | – | –
